The record followed here is patent US20240285631A1, “METHODS OF TREATING VASCULAR MALFORMATIONS” (priority 2023, published 2024).

SMILES strings stand for the structures.

The subject of test [1] is BMP9 signaling. The test is described as follows: Western Blot of BMP9-induced signaling in HUVECs. The format is cell-based, human. The note with it: Palbociclib pre-treatment. As to the method: FIG. 8A illustrates Western Blot analysis of the phosphorylation of the indicated proteins in response to VEGF-A (1.5 nM) in control vs. CDK4/6i treated HUVECs. FIG. 8B illustrates Western Blot analysis of the phosphorylation of the indicated proteins in response to BMP9 (10 ng/ml) in control vs. CDK4/6i-treated HUVECs. FIG. 8C illustrates quantification of phosphorylation normalized to total protein levels. (N=5 independent experiments, Data are mean±SEM, Mann-Whitney U test: *p<0.05). […] FIG. 8E illustrates ENDOGLIN (green) and IB4 (white) staining of retinal flat-mounts from P5 Alk1^fl/fl, Alk1^fl/fl treated with CDK4/6i, Alk1EC^iKO, and Alk1EC^iKO treated with CDK4/6i animals (A: Artery; V: Vein). FIG. 8F illustrates quantification of fluorescence intensity of ENDOGLIN staining in (FIG. 8E) retinal venous vessels of the indicated animals (N=4 retinas per group. Data are mean±SEM, one-way ANOVA with Tukey's multiple comparison test: *p<0.05; ns p>0.05). FIG. 8G illustrates timeline used for Tx injection, and CDK4/6i and FLT1 blocking antibody treatment of Alk1EC^iKO pups. […]
Next, we treated HUVECs with Alk1 siRNA to silence Alk1 and test the VEGF-A-induced response, with or without Palbociclib treatment, using pAKT activation as a readout.
For orientation: In western blotting, separated proteins are transferred to a membrane and probed.

Test [2] deals with retinal ECs in veins and arteries. In words: Flow-mediated EC polarization (Golgi orientation) in retinal vessels, BMP9/10 Abs model. The format is in vivo, mouse. The settings on record: BMP9/10 Abs + CDK4/6i.
Source text: FIG. 3C illustrates the polarity axis of each cell was defined as the angle between the direction of blood flow and the cell polarity axis, defined by a vector drawn from the center of the cell nucleus to the center of the Golgi apparatus. FIG. 3D illustrates EC polarization in arteries and veins of control, BMP9/10 Abs-treated, and BMP9/10 Abs- and CDK4/6i-treated animals. EC nuclei are immunostained with anti-ERG1,2,3 and Golgi apparatus with anti-GM130; ECs are labelled with IB4. […] FIG. 3E illustrates angular histograms showing the distribution of polarization angles of retinal ECs in arteries and veins from control, BMP9/10 Abs-treated, and BMP9/10 Abs- and CDK4/6i-treated P6 animals (N=6 to 8 retinas). FIG. 3F illustrates polarity index dot plots of ECs from arteries (A) and veins (V) from control, BMP9/10 Abs-treated, and BMP9/10 Abs- and CDK4/6i-treated P6 animals (N=6 to 8 retinas. Data are mean±SEM **p≤0.01, ns p>0.05). Two-Way ANOVA for independent measures was used. p≤0.05 was considered statistically significant. […] To analyze the orientation of the Golgi toward the direction of the flow in retinal vessels, we measured the angle formed by the vector nucleus/Golgi in each EC and the predicted blood flow vector in the vessel (as depicted in FIG. 3C). We also quantified the EC polarization using a polarity index^22 ranging from 1 (highly polarized) to 0 (random distribution).
The subject of test [3] is AVMs induced by BMP9/10 blocking antibodies. The test is described as follows: Retinal vasculature analysis in BMP9/10 blocking antibody mouse model of HHT. The settings on record: BMP9/10 Abs P2 and P4. The test is classed as in vivo.
For test [4], the system named is HUVECs. In words: Agilent Seahorse mitochondrial stress test in HUVECs. Further details: dose or concentration left out as unconfirmed. The settings on record: HUVECs pretreated with Palbociclib, vs control cells. The format is cell-based, human.
Source text: FIG. 4C illustrates representative traces of oxygen consumption rate (OCR) measured by Seahorse assay of control vs. CDK4/6i-treated HUVECs in response to oligomycin (ATP synthase inhibitor), BAM15 (mitochondrial uncoupler) and Antimycin A/Rotenone (mitochondrial respiratory chain complex III and I inhibitors) (N=6 independent experiments, Data are mean±SEM **p≤0.01, ns p>0.05). Two-way ANOVA for independent measures with Bonferonni's correction for statistical analysis. p<0.05 was considered statistically significant. The normality and homogeneity of variances assumptions were tested using Shapiro-Wilk test (p>0.05) and Mauchly's test of sphericity respectively. Quantification of mitochondrial activity expressed as basal OCR (FIG. 4D) and respiratory capacity (FIG. 4E) in control vs. CDK4/6i-treated HUVECs. […]
HUVECs (70% confluent) were treated with Palbociclib (3 mg/ml) for 12 h in EGM™2-Bulletkit™ medium (CC-3156 & CC-4176, Lonza) prior to seeding onto a Seahorse 24-well tissue culture plate (Agilent Technologies) in EMB-2 media (CC-3162 Lonza) supplemented with 0.1% FBS and Palbociclib (3 mg/ml). […] Oxygen consumption rate (OCR) was measured using a Seahorse XF24 Flux Analyzer (Agilent Technologies). […] Basal respiration was calculated by subtracting the average of the first three measurements by the average of the post-Antimycin A & Rotenone measurements. […]
Test [5] deals with vascular malformations in Alk1EC^iKO pups. The test is described as follows: Blue latex dye vascular perfusion of brain, lungs and intestinal tract in Alk1EC^iKO pups. The format is in vivo, mouse. The text has this:
FIG. 5A illustrates a timeline used for tamoxifen (Tx) injection and CDK4/6i treatment of Alk1EC^iKO pups. FIG. 5B illustrates representative images showing retinal vasculature labelled with IB4 from control, Alk1EC^iKO, and Alk1EC^iKO+CDK4/6i-treated P5 animals. Bar graphs showing (FIG. 5C) quantification of AV shunt number per retina, (FIG. 5D) vascular density, and (FIG. 5E) vascular progression. (N=8 to 10 retinas/group, at least 4 mice). Data are mean±SEM, One-way ANOVA, *p≤0.05, **p≤0.01). FIG. 5F illustrates a timeline used for Tx injection and CDK4/6i treatment of Alk1EC^iKO pups for blue latex dye perfusion experiments. FIG. 5G illustrates blue latex dye vascular perfusion in brains from control, Alk1EC^iKO, and Alk1EC^iKO+CDK4/6i-treated P7 animals. […] FIG. 5H illustrates the quantification of left middle cerebral artery (MCA) and basilar artery (BA) in control, Alk1EC^iKO, and Alk1EC^iKO+CDK4/6i-treated animals. FIG. 5I illustrates the quantification of the number of latex filled veins in control, Alk1EC^iKO, and Alk1EC^iKO+CDK4/6i-treated animals. (N=4 to 6 mice/group. Data are mean±SEM, one-way ANOVA with Holm-Šidàk's multiple comparison test, *p≤0.05, **p≤0.01, ***p<0.001). Scale bar (G): 4 mm.
About 50% of HHT patients harbor mutations in the Acvrl1 gene^1, which encodes for the ALK1 receptor. To validate the clinical relevance of the use of Palbociclib for the treatment of HHT, we crossed Cdh5Cre^ERT2 mice with Alk1^flox/flox mice (6-8-week-old) to generate an endothelial-specific inducible deletion of Alk1 (referred to as Alk1EC^iKO), which is an established preclinical mouse model of human HHT type 2^12,25. Neonatal Alk1EC^iKO pups received a single i.p. injection of tamoxifen at P3 to induce Alk1 gene deletion and were then treated with Palbociclib via oral gavage at P4, and their retinal vasculature was analyzed at P5 (FIG. 5A). […] Due to the relatively short survival time post-tamoxifen induction in Alk1EC^iKO mice (approximately 48 hours), our study is limited to a single Palbociclib injection, which represents a technical challenge in exploring additional treatments. […] Single Cell RNA sequencing analysis of Palbociclib effects on endothelial arteriovenous identity in Alk1EC^iKO mice.

Take `CC(=O)c1c(C)c2cnc(Nc3ccc(N4CCNCC4)cn3)nc2n(C2CCCC2)c1=O` [Palbociclib, 6-acetyl-8-cyclopentyl-5-methyl-2-[5-(1-piperazinyl)pyridine-2-ylamino]pyrido[2,3-d]pyrimidin-7(8H)-one]: the “SMAD1/5/8 phosphorylation in response to BMP9” value in test [1] is on record as “enhanced SMAD1/5/8 phosphorylation”. In test [2], the “polarity of retinal ECs toward blood flow” value was “oriented similarly to controls”. For the same compound, in test [3] (CDK4/6i P4-P6, P7), the arterial vessel diameter entry was “not arterial vessel diameters”, the retinal vascular density entry is on record as “less hyperdense retinal vascular plexi”, the retinal vascular progression entry was “normalized retinal vascular progression” and the venous vessel diameter entry is reported as “normalized”. The “AV shunt number per retina” value in test [3] (CDK4/6i oral gavage 120 mg/kg/d P4, P5, P6, retinas at P7, vs BMP9/10 Abs only) is reported as “fewer AV shunts”. Moreover, in test [4], the “mitochondrial basal respiration (basal OCR)” value is “significantly lower” and the “respiratory capacity (OCR)” value was “significantly lower”. For the same compound, in test [5] (P7, gastrointestinal tract), the “veins filled with blue latex (arteriovenous shunts) in the intestinal tract” value is “absent”. Further, the “diameter of the basilar and middle cerebral arteries” value in test [5] (brain, single dose of Palbociclib at P4) was “trend toward normalization”. Also, the “number of latex-filled veins in brain” value in test [5] (brain, vs untreated Alk1EC^iKO) is “significantly reduced”. The “latex blue dye extravasation across the intrapulmonary bed” value in test [5] (lungs) is “dye extravasation was reduced”.
